In ChEMBL document CHEMBL1201861, “Genomics of Drug Sensitity in Cancer screening data, Wellcome Trust Sanger Institute”:

Key:
Test in all cases: cells
[1] = tested on: COLO-824; format: functional, cell-based, Homo sapiens; conditions: Homo sapiens, COLO-824
Description: SANGER: Inhibition of human COLO-824 cell growth in a cell viability assay.

[2] = tested on: DMS-114; format: functional, cell-based, Homo sapiens; conditions: Homo sapiens, DMS-114
[3] = tested on: EFM-19; format: functional, cell-based, Homo sapiens; conditions: Homo sapiens, EFM-19;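 further: growth inhibition of human EFM-19 cells, measured in a cell viability assay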
Description: SANGER: Inhibition of human EFM-19 cell growth in a cell viability assay.

[4] = tested on: EW-16; format: functional, cell-based, Homo sapiens; conditions: Homo sapiens, EW-16;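 further: growth inhibition of human EW-16 cells, read out as cell viability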
Description: SANGER: Inhibition of human EW-16 cell growth in a cell viability assay.

[5] = tested on: GAMG; format: functional, cell-based, Homo sapiens; conditions: Homo sapiens, GAMG;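 further: cell growth inhibition measured by a viability assay in the GAMG human cell line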
Description: SANGER: Inhibition of human GAMG cell growth in a cell viability assay.

[6] = tested on: GB-1; format: functional, cell-based, Homo sapiens; conditions: Homo sapiens, GB-1;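 further: growth of GB-1 cells judged by a viability assay, IC50 marks the concentration inhibiting growth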
Description: SANGER: Inhibition of human GB-1 cell growth in a cell viability assay.

[7] = tested on: GP5d; format: functional, cell-based, Homo sapiens; conditions: Homo sapiens, GP5d;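 further: growth inhibition of human GP5d cells, read out with a cell viability assay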
Description: SANGER: Inhibition of human GP5d cell growth in a cell viability assay.

[8] = tested on: HSC-2; format: functional, cell-based, Homo sapiens; conditions: Homo sapiens, HSC-2;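 further: growth inhibition of human HSC-2 cells, read out by a cell viability assay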
Description: SANGER: Inhibition of human HSC-2 cell growth in a cell viability assay.

[9] = tested on: HSC-3; format: functional, cell-based, Homo sapiens; conditions: Homo sapiens, HSC-3
Description: SANGER: Inhibition of human HSC-3 cell growth in a cell viability assay.

[10] = tested on: HT-1376; format: functional, cell-based, Homo sapiens; conditions: Homo sapiens, HT-1376
Description: SANGER: Inhibition of human HT-1376 cell growth in a cell viability assay.

[11] = tested on: IGR-1; format: functional, cell-based, Homo sapiens; conditions: Homo sapiens, IGR-1;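 further: growth inhibition of human IGR-1 cells, read out with a cell viability assay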
Description: SANGER: Inhibition of human IGR-1 cell growth in a cell viability assay.

[12] = tested on: JVM-2; format: functional, cell-based; conditions: Homo sapiens;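 further: growth inhibition of JVM-2 cells determined by a cell viability assay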
Description: SANGER: Inhibition of human JVM-2 cell growth in a cell viability assay.

[13] = tested on: KYSE-180; format: functional, cell-based, Homo sapiens; conditions: Homo sapiens, KYSE-180;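 further: growth inhibition of KYSE-180 cells, read out with a cell viability assay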
Description: SANGER: Inhibition of human KYSE-180 cell growth in a cell viability assay.

[14] = tested on: KYSE-510; format: functional, cell-based, Homo sapiens; conditions: Homo sapiens, KYSE-510;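 further: cell viability readout used to measure how strongly growth of the cell line is suppressed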
Description: SANGER: Inhibition of human KYSE-510 cell growth in a cell viability assay.

[15] = tested on: LB1047-RCC; format: functional, cell-based, Homo sapiens; conditions: Homo sapiens, LB1047-RCC;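 further: inhibition of cell growth, determined with a cell viability assay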
Description: SANGER: Inhibition of human LB1047-RCC cell growth in a cell viability assay.

[16] = tested on: LS-411N; format: functional, cell-based, Homo sapiens; conditions: Homo sapiens, LS-411N
[17] = tested on: M059J; format: functional, cell-based, Homo sapiens; conditions: Homo sapiens, M059J;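 further: growth inhibition of M059J cells, read out with a cell viability assay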
Description: SANGER: Inhibition of human M059J cell growth in a cell viability assay.

[18] = tested on: MHH-ES-1; format: functional, cell-based, Homo sapiens; conditions: Homo sapiens, MHH-ES-1;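 further: cell growth inhibition measured by a cell viability assay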
Description: SANGER: Inhibition of human MHH-ES-1 cell growth in a cell viability assay.

[19] = tested on: MLMA; format: functional, cell-based, Homo sapiens; conditions: Homo sapiens, MLMA;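 further: growth inhibition of MLMA cells (human), determined through a cell viability readout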
Description: SANGER: Inhibition of human MLMA cell growth in a cell viability assay.

[20] = tested on: MS-1; format: functional, cell-based; conditions: Homo sapiens;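 further: growth inhibition of MS-1 cells, read out by cell viability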
Description: SANGER: Inhibition of human MS-1 cell growth in a cell viability assay.

[21] = tested on: MeWo; format: functional, cell-based, Homo sapiens; conditions: Homo sapiens, MeWo;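 further: growth inhibition of MeWo cells, determined by a cell viability readout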
Description: SANGER: Inhibition of human Mewo cell growth in a cell viability assay.

[22] = tested on: NB13; format: functional, cell-based, Homo sapiens; conditions: Homo sapiens, NB13;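 further: cell viability readout measuring growth inhibition of human NB13 cells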
Description: SANGER: Inhibition of human NB13 cell growth in a cell viability assay.

[23] = tested on: NB6; format: functional, cell-based, Homo sapiens; conditions: Homo sapiens, NB6;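 further: growth inhibition of NB6 cells, read out by a cell viability assay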
Description: SANGER: Inhibition of human NB6 cell growth in a cell viability assay.

[24] = tested on: NCI-H1299; format: functional, cell-based, Homo sapiens; conditions: Homo sapiens, NCI-H1299;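 further: growth inhibition of human NCI-H1299 cells, read out by a cell viability assay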
Description: SANGER: Inhibition of human NCI-H1299 cell growth in a cell viability assay.

[25] = tested on: NCI-H1993; format: functional, cell-based, Homo sapiens; conditions: Homo sapiens, NCI-H1993;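 further: growth inhibition of the cancer cell line, assessed with a cell viability assay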
Description: SANGER: Inhibition of human NCI-H1993 cell growth in a cell viability assay.

[26] = tested on: NCI-H2030; format: functional, cell-based, Homo sapiens; conditions: Homo sapiens, NCI-H2030;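 further: growth inhibition of human NCI-H2030 cells, read out by a cell viability assay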
Description: SANGER: Inhibition of human NCI-H2030 cell growth in a cell viability assay.

[27] = tested on: NCI-H2170; format: functional, cell-based, Homo sapiens; conditions: Homo sapiens, NCI-H2170;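 further: cell viability assay measuring growth inhibition of human NCI-H2170 cancer cells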
Description: SANGER: Inhibition of human NCI-H2170 cell growth in a cell viability assay.

[28] = tested on: NCI-H226; format: functional, cell-based, Homo sapiens; conditions: Homo sapiens, NCI-H226;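 further: cell viability read-out used to gauge growth inhibition of the cells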
Description: SANGER: Inhibition of human NCI-H226 cell growth in a cell viability assay.

[29] = tested on: NCI-H2342; format: functional, cell-based; conditions: Homo sapiens;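 further: growth inhibition of the cancer cell line, determined with a cell viability assay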
Description: SANGER: Inhibition of human NCI-H2342 cell growth in a cell viability assay.

[30] = tested on: NCI-H2452; format: functional, cell-based, Homo sapiens; conditions: Homo sapiens, NCI-H2452;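 further: growth inhibition of NCI-H2452 cells, read out with a cell viability assay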
Description: SANGER: Inhibition of human NCI-H2452 cell growth in a cell viability assay.

[31] = tested on: NCI-H727; format: functional, cell-based, Homo sapiens; conditions: Homo sapiens, NCI-H727;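 further: growth inhibition of human NCI-H727 cells, read out with a cell viability assay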
Description: SANGER: Inhibition of human NCI-H727 cell growth in a cell viability assay.

[32] = tested on: NOS-1; format: functional, cell-based, Homo sapiens; conditions: Homo sapiens, NOS-1;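 further: growth inhibition of the human NOS-1 cell line, read out with a cell viability assay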
Description: SANGER: Inhibition of human NOS-1 cell growth in a cell viability assay.

[33] = tested on: RCC10RGB; format: functional, cell-based, Homo sapiens; conditions: Homo sapiens, RCC10RGB;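 further: growth inhibition of human RCC10RGB cells, read out by a cell viability assay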
Description: SANGER: Inhibition of human RCC10RGB cell growth in a cell viability assay.

[34] = tested on: RO82-W-1; format: functional, cell-based, Homo sapiens; conditions: Homo sapiens, RO82-W-1;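 further: growth inhibition of human RO82-W-1 cells, measured with a cell viability assay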
Description: SANGER: Inhibition of human RO82-W-1 cell growth in a cell viability assay.

[35] = tested on: SK-LU-1; format: functional, cell-based, Homo sapiens; conditions: Homo sapiens, SK-LU-1;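 further: cell viability assay measuring growth inhibition of human SK-LU-1 cells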
Description: SANGER: Inhibition of human SK-LU-1 cell growth in a cell viability assay.

[36] = tested on: SNB-75; format: functional, cell-based, Homo sapiens; conditions: Homo sapiens, SNB-75;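 further: cell viability assay measuring growth inhibition of human SNB-75 cells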
Description: SANGER: Inhibition of human SNB75 cell growth in a cell viability assay.

[37] = tested on: SW1710; format: functional, cell-based, Homo sapiens; conditions: Homo sapiens, SW1710;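 further: growth inhibition of SW1710 cells, determined with a cell viability assay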
Description: SANGER: Inhibition of human SW1710 cell growth in a cell viability assay.

[38] = tested on: SW1783; format: functional, cell-based; conditions: Homo sapiens;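 further: cell growth inhibition measured with a viability assay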
Description: SANGER: Inhibition of human SW1783 cell growth in a cell viability assay.

[39] = tested on: SW684; format: functional, cell-based, Homo sapiens; conditions: Homo sapiens, SW684;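 further: growth inhibition of human SW684 cells, measured by a cell viability assay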
Description: SANGER: Inhibition of human SW684 cell growth in a cell viability assay.

[40] = tested on: T47D; format: functional, cell-based, Homo sapiens; conditions: Homo sapiens, T47D;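 further: growth inhibition of human T47D cells, measured with a cell viability assay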
Description: SANGER: Inhibition of human T47D cell growth in a cell viability assay.

[41] = tested on: 769-P; format: functional, cell-based, Homo sapiens; conditions: Homo sapiens, 769-P
Description: SANGER: Inhibition of human 769-P cell growth in a cell viability assay.

[42] = tested on: A101D; format: functional, cell-based, Homo sapiens; conditions: Homo sapiens, A101D;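 further: growth inhibition of the cell line, measured with a viability assay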
Description: SANGER: Inhibition of human A101D cell growth in a cell viability assay.

[43] = tested on: A253 cell line; format: functional, cell-based, Homo sapiens; conditions: Homo sapiens, A253;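 further: growth inhibition of A253 cells, read out with a cell viability assay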
Description: SANGER: Inhibition of human A253 cell growth in a cell viability assay.

[44] = tested on: A-375; format: functional, cell-based, Homo sapiens; conditions: Homo sapiens, A-375;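 further: growth inhibition of A375 cells, read out with a cell viability assay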
Description: SANGER: Inhibition of human A375 cell growth in a cell viability assay.

[45] = tested on: A388; format: functional, cell-based, Homo sapiens; conditions: Homo sapiens, A388;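 further: growth inhibition of human A388 cells, read out with a cell viability assay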
Description: SANGER: Inhibition of human A388 cell growth in a cell viability assay.

[46] = tested on: AU565; format: functional, cell-based, Homo sapiens; conditions: Homo sapiens, AU565;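 further: cell viability assay measuring growth inhibition of human AU565 cells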
Description: SANGER: Inhibition of human AU565 cell growth in a cell viability assay.

[47] = tested on: C8166; format: functional, cell-based; conditions: Homo sapiens;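 further: growth inhibition of human C8166 cells measured by a cell viability assay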
Description: SANGER: Inhibition of human C8166 cell growth in a cell viability assay.

[48] = tested on: UACC-893; format: functional, cell-based, Homo sapiens; conditions: Homo sapiens, UACC-893
Description: SANGER: Inhibition of human UACC-893 cell growth in a cell viability assay.

[49] = tested on: UMC-11; format: functional, cell-based, Homo sapiens; conditions: Homo sapiens, UMC-11;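 further: growth inhibition of UMC-11 cells, read out with a cell viability assay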
Description: SANGER: Inhibition of human UMC-11 cell growth in a cell viability assay.

[50] = tested on: D-247MG; format: functional, cell-based, Homo sapiens; conditions: Homo sapiens, D-247MG
Description: SANGER: Inhibition of human D-247MG cell growth in a cell viability assay.

## C[C@]1(O)C[C@@H](c2nc(-c3ccc4ccc(-c5ccccc5)nc4c3)c3c(N)nccn32)C1 [LINSITINIB]
[1]
  IC50: > 2.56 µM
[2]
  IC50: > 2.56 µM
[3]
  IC50: > 2.56 µM
[4]
  IC50: 0.188 µM
[5]
  IC50: > 2.56 µM
[6]
  IC50: > 2.56 µM
[7]
  IC50: > 2.56 µM
[8]
  IC50: > 2.56 µM
[9]
  IC50: > 2.56 µM
[10]
  IC50: > 2.56 µM
[11]
  IC50: > 2.56 µM
[12]
  IC50: > 2.56 µM
[13]
  IC50: > 2.56 µM
[14]
  IC50: > 2.56 µM
[15]
  IC50: > 2.56 µM
[16]
  IC50: > 2.56 µM
[17]
  IC50: > 2.56 µM
[18]
  IC50: > 2.56 µM
[19]
  IC50: > 2.56 µM
[20]
  IC50: > 2.56 µM
[21]
  IC50: > 2.56 µM
[22]
  IC50: > 2.56 µM
[23]
  IC50: > 2.56 µM
[24]
  IC50: > 2.56 µM
[25]
  IC50: > 2.56 µM
[26]
  IC50: > 2.56 µM
[27]
  IC50: > 2.56 µM
[28]
  IC50: > 2.56 µM
[29]
  IC50: > 2.56 µM
[30]
  IC50: > 2.56 µM
[31]
  IC50: 0.198 µM
[32]
  IC50: 0.523 µM
[33]
  IC50: > 2.56 µM
[34]
  IC50: > 2.56 µM
[35]
  IC50: > 2.56 µM
[36]
  IC50: > 2.56 µM
[37]
  IC50: > 2.56 µM
[38]
  IC50: > 2.56 µM
[39]
  IC50: > 2.56 µM
[40]
  IC50: > 2.56 µM
[41]
  IC50: > 2.56 µM
[42]
  IC50: > 2.56 µM
[43]
  IC50: > 2.56 µM
[44]
  IC50: 0.476 µM
[45]
  IC50: > 2.56 µM
[46]
  IC50: > 2.56 µM
[47]
  IC50: > 2.56 µM
[48]
  IC50: > 2.56 µM
[49]
  IC50: > 2.56 µM

## O=c1cc(-c2cccc3c2Sc2ccccc2S3)oc(N2CCOCC2)c1 [KU-55933]
[1]
  IC50: > 10 µM
[50]
  IC50: > 10 µM
[2]
  IC50: > 10 µM
[3]
  IC50: > 10 µM
[4]
  IC50: > 10 µM
[5]
  IC50: > 10 µM
[6]
  IC50: > 10 µM
[7]
  IC50: > 10 µM
[8]
  IC50: > 10 µM
[9]
  IC50: > 10 µM
[10]
  IC50: > 10 µM
[11]
  IC50: > 10 µM
[13]
  IC50: > 10 µM
[14]
  IC50: > 10 µM
[15]
  IC50: > 10 µM
[16]
  IC50: > 10 µM
[17]
  IC50: > 10 µM
[18]
  IC50: > 10 µM
[19]
  IC50: > 10 µM
[20]
  IC50: > 10 µM
[21]
  IC50: > 10 µM
[22]
  IC50: > 10 µM
[23]
  IC50: > 10 µM
[24]
  IC50: > 10 µM
[25]
  IC50: > 10 µM
[26]
  IC50: > 10 µM
[27]
  IC50: > 10 µM
[28]
  IC50: > 10 µM
[29]
  IC50: > 10 µM
[30]
  IC50: > 10 µM
[31]
  IC50: > 10 µM
[32]
  IC50: > 10 µM
[33]
  IC50: > 10 µM
[34]
  IC50: > 10 µM
[35]
  IC50: > 10 µM
[36]
  IC50: > 10 µM
[37]
  IC50: > 10 µM
[38]
  IC50: > 10 µM
[39]
  IC50: > 10 µM
[40]
  IC50: > 10 µM
[41]
  IC50: > 10 µM
[42]
  IC50: > 10 µM
[43]
  IC50: > 10 µM
[44]
  IC50: > 10 µM
[45]
  IC50: > 10 µM
[46]
  IC50: > 10 µM
[47]
  IC50: > 10 µM
[48]
  IC50: > 10 µM
[49]
  IC50: > 10 µM

## Cn1cncc1[C@@](N)(c1ccc(Cl)cc1)c1ccc2c(c1)c(-c1cccc(Cl)c1)cc(=O)n2C [TIPIFARNIB]
[1]
  IC50: > 16 µM
[2]
  IC50: > 16 µM
[3]
  IC50: 1.75 µM
[4]
  IC50: 3.59 µM
[5]
  IC50: 8.92 µM
[6]
  IC50: 3.7 µM
[7]
  IC50: 1.42 µM
[8]
  IC50: 5.2 µM
[9]
  IC50: 2.63 µM
[10]
  IC50: 11.6 µM
[11]
  IC50: 1.62 µM
[12]
  IC50: > 16 µM
[13]
  IC50: 3.37 µM
[14]
  IC50: 0.977 µM
[15]
  IC50: > 16 µM
[16]
  IC50: 1.1 µM
[17]
  IC50: > 16 µM
[18]
  IC50: 5.27 µM
[19]
  IC50: > 16 µM
[20]
  IC50: > 16 µM
[21]
  IC50: 2.04 µM
[22]
  IC50: 4.62 µM
[23]
  IC50: > 16 µM
[24]
  IC50: 0.693 µM
[25]
  IC50: > 16 µM
[26]
  IC50: 2.35 µM
[27]
  IC50: 8.39 µM
[28]
  IC50: > 16 µM
[29]
  IC50: 0.38 µM
[30]
  IC50: > 16 µM
[31]
  IC50: 0.874 µM
[32]
  IC50: 2.13 µM
[33]
  IC50: 8.49 µM
[34]
  IC50: > 16 µM
[35]
  IC50: 3.55 µM
[36]
  IC50: 9.02 µM
[37]
  IC50: 0.726 µM
[38]
  IC50: 1.26 µM
[39]
  IC50: > 16 µM
[40]
  IC50: > 16 µM
[41]
  IC50: 4.19 µM
[42]
  IC50: 1.87 µM
[43]
  IC50: 10.5 µM
[44]
  IC50: 0.616 µM
[45]
  IC50: 0.865 µM
[46]
  IC50: 1.79 µM
[47]
  IC50: > 16 µM
[48]
  IC50: > 16 µM
[49]
  IC50: > 16 µM
